Measurements taken from ChEMBL document CHEMBL1157539, “Thousands of chemical starting points for antimalarial lead identification” (Nature, 2010).

Tested on: Plasmodium falciparum
Assay: GSK_TCMDC: Inhibition of Plasmodium falciparum 3D7 in whole erythrocytes, using parasite LDH activity as an index of growth.
Format: functional, organism-based
Settings: Plasmodium falciparum, 3D7

SMILES | XC50 [µM]
CCCCc1ccc(-c2ccc3[nH]c(C)c(Br)c(=O)c3c2)cc1 | 0.105
Cc1[nH]c2ccc(O)cc2c1C1CCN(CC2CCC(NC(=O)/C=C/c3c(Cl)cccc3Cl)CC2)CC1 (stereo not given) | 0.817
CN(C)CCCOc1ccc(CNCC(C)(C)c2nc(-c3ccc(Cl)c(O)c3)c(-c3ccncc3)[nH]2)cc1 | 0.708
Cc1ccccc1C(O)CNc1ccnc(Nc2cccc(C#N)c2)n1 (stereo not given) | 0.875
O=C(NOCCOc1ccccc1)c1ccccc1 | 0.317
Cc1cc(Nc2ccc(OCc3ccccc3Cl)cc2)c2cc(Cl)ccc2n1 | 0.433
O=C(Nc1ccc(S(=O)(=O)N2CCOCC2)cc1)c1cc(-c2cc(Cl)ccc2O)n[nH]1 | 0.77
COc1ccccc1CCNC(=O)c1cc(Br)cc(N2CCN(c3ccncc3)CC2)c1 | 1.27
CC(C)(C)C1CCC(CC2=C(C(=O)O)c3ccccc3C2=O)CC1 (stereo not given) | 1.1
CN1CCN(c2nsc3ccc(-c4ccc(NC(=O)Nc5ccccc5)cc4)cc23)CC1 | 0.18
N=C(N)Nc1nc(-c2ccc(NC(=O)Nc3cccc(-c4csc(NC(=N)N)n4)c3)cc2)cs1 | 1.01
CC(=O)CCc1ccc(OCCN(Cc2ccccc2C(F)(F)F)c2ccc(C#N)c(C(F)(F)F)c2)cc1 | 0.267
FC(F)(F)c1ccc2[nH]c(-c3ccc(-c4cccc(CN5CCN(CCN6CCOCC6)CC5)c4)cc3)nc2c1 | 0.16
Cc1cccc(C)c1CNc1nc(N2CCOCC2)cc2c(C)c(C)[nH]c12 | 1.24
c1cc(CN2CCN(CCN3CCOCC3)CC2)cc(-c2cccc(-c3nc4ccccc4[nH]3)c2)c1 | 0.236
CCCCc1cc(NCC)nc(Nc2ccc(F)cc2)n1 | 0.79
COCn1ncc2cc(-c3cccc(NC(=O)c4csc(NC(C)=O)n4)c3)ccc21 | 0.987
Cc1cccc2nc(-c3ccc(-c4cccc(CNCCCNS(C)(=O)=O)c4)cc3)[nH]c12 | 1.22
Cc1c(Cl)ccc2sc(N3CCN(C(=O)c4ccc([N+](=O)[O-])o4)CC3)nc12 | 0.745
COc1ccccc1CCNc1nc(C)cc(N[C@@H](Cc2ccccc2)C(=O)NCCOc2ccccc2)n1 | 1.21
COc1ccc2nccc(N3CCC(NCCNCc4cc5c(cn4)OCCO5)C3)c2n1 (stereo not given) | 0.578
O=C(CC1NC(=O)c2ccccc21)Nc1ccc(-c2ccc(-c3nc4cc(C(F)(F)F)ccc4[nH]3)cc2)cc1 (stereo not given) | 0.47
CN(C)C(=O)CC(=O)NCc1c(Cl)cccc1Cl | 0.203
CC(C)Cn1ccc2c3c(N)nc(N)nc3ccc21 | 0.0342
O=c1c(Br)ccccc1Br | 0.795

SMILES | XC50 [µM]
CN1CCN(c2ccc(-c3cccc(NC(=O)c4cccc(Cl)c4)c3)nn2)CC1 | 0.579
O=C(Nc1ccc(Cn2ncc(N3CCCNCC3)c(Cl)c2=O)cc1)Nc1ccc(C(F)(F)F)cc1 | 0.731
CCOC(=O)COc1cccc(CNc2ccc3nc(N)nc(N)c3c2)c1 | 0.408
COCC(=O)Nc1nc2ccccc2[nH]1 | 0.301
O=C(NCc1ccc(F)cc1)Nc1ccc(-c2ccc(-c3nc4ccccc4[nH]3)cc2)cc1 | 0.0907
Fc1ccc2[nH]c(-c3ccc(-c4ccc(CNCc5cnn(-c6ccccc6)n5)cc4)cc3)nc2c1 | 0.54
Cc1ccc(C)c(NC(=O)NCCNc2ccnc(Nc3ccc(F)cc3)n2)c1 | 0.817
N#Cc1ccc(N/C(=N\c2ccccc2Br)N(C2CCCCC2)C2CCCCC2)c(O)c1 | 0.785
COc1cccc(C=CC(=O)NC2CCC(CN3CCC(c4c[nH]c5ccccc45)CC3)CC2)c1OC (stereo not given) | 0.74
COc1ccccc1C1CCN(C2CCC(NC(=O)/C=C/c3ccc(C(F)(F)F)cc3F)CC2)CC1 (stereo not given) | 0.99
O=C(c1ccccc1[N+](=O)[O-])N(Cc1ccccc1)c1ccccn1 | 0.192
COc1ccc2nccc([C@@H](O)CN3CCC(NCCNc4ccccn4)CC3)c2c1 | 0.741
CC(=O)/N=C1\N=C(NC(C)=O)NC(C)(C)N1OCCCOc1ccc(Cl)c(Cl)c1 | 0.00833
CC(C)(C)c1ccc(C(=O)Nc2ccc3nc4c(c(N)c3c2)CCCC4)cc1 | 0.175
CCCCCN1CCCC1CNS(=O)(=O)c1cccc(C(=O)Nc2cccc(C(F)(F)F)c2)c1 (stereo not given) | 0.77
CC(C)c1ccc(NS(=O)(=O)c2cccc(C(=O)NC3CCN(CC4CCCCC4)CC3)c2)cc1 | 1.3
Cc1cc(NC(=O)NCCN2CCC(NC(=O)c3ccc(F)cc3)CC2)c2ccccc2n1 | 0.331
O=C(NC1CCC(CCN2Cc3ccc(Br)cc3C2)CC1)c1cccc(-c2cccnc2)c1 (stereo not given) | 0.927
CCc1cc(Br)c2c(c1)C(NCCCNc1cc(=O)c3ccccc3[nH]1)CCN2 (stereo not given) | 0.852
OC(CNCc1cccc(Oc2ccc(Cl)cc2)c1)c1cc(C(F)(F)F)cc(C(F)(F)F)c1 (stereo not given) | 0.255
N#Cc1cccc(NC(=O)NC2CCN(CCCCCNC(=O)C3CC3c3ccc(Cl)c(Cl)c3)CC2)c1 (stereo not given) | 0.785
O=C(C=Cc1ccc(Cl)c(Cl)c1)NCCCCCN1CCCC(CCCNC(=O)/C=C/c2ccccc2)C1 (stereo not given) | 0.593
CC(C)(C)c1ccc(CN2CCC(NC(=O)c3ccc(-c4ccccc4F)s3)CC2)cc1 | 1.2
Cc1nn(CC(C)C)c2sc(C(=O)Nc3nc(-c4ccccn4)cs3)cc12 | 0.961
O=C(N/N=C/c1nc2ccccc2[nH]1)c1cccc([N+](=O)[O-])c1 | 0.628

SMILES | XC50 [µM]
CC(C)c1ccc(NC(=O)c2ccc(CN3CCCN(Cc4cccc(O)c4)CC3)cc2)cc1 | 0.679
O=C(Nc1ccc([N+](=O)[O-])cc1)Nc1cc(C(F)(F)F)ccc1F | 1.07
CC(=O)Nc1ccc(-c2nc3ccc(-c4nc5ccc(NC(C)=O)cc5[nH]4)cc3[nH]2)cc1 | 0.242
Cc1cccc(C(=O)Nc2ccnc(N3CCC(N(C)Cc4ccccc4)CC3)c2)c1 | 0.962
CCN(CC)CCNc1ccnc2ccc3ccccc3c12 | 0.219
Cc1cc(C(=O)CN2C(=O)NC(C)(c3cccc4ccccc34)C2=O)c(C)n1Cc1ccco1 (stereo not given) | 0.626
COc1cccc(C(=O)NC(C=Cc2ccccc2)c2cc(Cl)c3cccnc3c2O)c1 (stereo not given) | 0.859
CCC1CCc2cc(N)cc(-c3nc4c(c(C)nn4CC)c(=O)[nH]3)c2O1 (stereo not given) | 1.12
N#Cc1cccc(NC(=O)Nc2cccc(-c3cccc(-c4nc5ccccc5[nH]4)c3)c2)c1 | 0.0902
N=C(Nc1ccccc1)Nc1cccc(Cc2ccc([N+](=O)[O-])cc2)n1 | 0.945
CCN(CC)S(=O)(=O)c1ccc(Cl)c(C(=O)Nc2ccc3nc(C)sc3c2)c1 | 0.798
O=C(Nc1ccc(-c2cccc(-c3nc4cc(F)ccc4[nH]3)c2)cc1)Nc1ccsc1 | 0.693
COc1cc(Cc2cnc(N)nc2N)c2c(c1OC)OC(C)(C)C=C2 | 1.19
Cc1ccc(Cn2ncc(N3CCCNCC3)c(Cl)c2=O)cc1NC(=O)Nc1ccc(-c2ccccc2)cc1 | 0.625
Cc1csc(NC(=O)c2cn(-c3ccccc3)nc2-c2cccs2)n1 | 0.911
O=C(NCc1ccccc1)Nc1ccc(-c2ccc(-c3nc4cc(C(F)(F)F)ccc4[nH]3)cc2)cc1 | 0.671
O=C(CCCCCc1ccccc1)NC1CCC(CN2CCC(c3c[nH]c4ccccc34)CC2)CC1 (stereo not given) | 1.14
Cc1ccc(F)c(OCC2CCN(c3ncc(C(=O)NC4CC4)cc3Cl)CC2)c1 | 0.902
CC(=O)c1cccc(Nc2nc3ccc(OCc4cc(Cl)cc(Cl)c4)c(C#N)c3[nH]2)c1 | 0.869
C[C@H](NC(=O)[C@H](CCCCNC(=O)OC(C)(C)C)NC(=O)OC(C)(C)c1ccc(-c2ccccc2)cc1)C(=O)OCc1ccccc1 | 0.181
CCN(CC)C(=O)C1CCN(C(C(=O)N2CCN(CC(=O)N3CCCC3)CC2)c2cc3ccccc3o2)CC1 (stereo not given) | 0.707
CN1CCCN(Cc2cccc(-c3cccc(NC(=O)c4ccc(Cl)cc4)c3)c2)CC1 | 0.922
Cc1noc(C)c1-c1ccc2c(Nc3ccc(Cl)cc3)c(C(N)=O)cnc2c1 | 0.826
Cc1cccc2nc(C(=O)Nc3nc(CN4CCC(C)CC4)cs3)cn12 | 0.758
CCN(CC)CCCC(C)Nc1c2cc(OC)ccc2nc2cc(Cl)c([N+](=O)[O-])cc12 (stereo not given) | 0.787

SMILES | XC50 [µM]
CC(C)Nc1cc(C(=O)N[C@@H](Cc2ccccc2)[C@H](O)CNC2CCCCC2)cc(N2CCCCS2(=O)=O)c1 | 0.103
CCN(CC)CCNc1ccnc2[nH]c3ccc(Cl)cc3c12 | 0.245
CS(=O)(=O)c1ccc(-c2cnc(N)c(-c3cccc(CO)c3)c2)cc1 | 0.939
O=C(Nc1cccc(-c2nn3ccccc3c2-c2ccnc(Nc3ccccc3)n2)c1)c1cc(F)ccc1F | 0.953
COCCCNC(=O)[C@H]1CNCCN1C(=O)c1ccccc1 | 0.802
CCCCCCn1ccc2c3c(N)nc(N)nc3ccc21 | 0.149
COc1ccc(N2CCN(CCCCNC(=O)c3ccc(/C=C/c4ccc(Cl)c(Cl)c4)cc3)CC2)c(OC)c1 | 0.709
O=C(/C=C/c1ccccc1Cl)Nc1ccc(Br)c(OCCN2CCC(O)(c3ccccc3)CC2)c1 | 0.483
Cc1ccc(-c2nnc3c4ccccc4c(C)nn23)cc1S(=O)(=O)N1CCN(CCO)CC1 | 0.669
Cc1ccc2[nH]c(C)cc(=NN=Cc3ccccc3Cl)c2c1 | 0.752
CCNc1cc(C(=O)N[C@@H](Cc2ccco2)[C@H](O)CNC2CCCCC2)cc(N2CCCCS2(=O)=O)c1 | 1.01
COc1cc(Cc2cnc(N)nc2N)cc(OC)c1OC [TRIMETHOPRIM] | 0.755
N#CC(c1ccc(F)cc1)c1ccc2c(C(F)(F)F)cc(C(F)(F)F)nc2n1 (stereo not given) | 0.726
CC(C)Oc1ccc2ccccc2c1CNCCCCCCNCc1c(OC(C)C)ccc2ccccc12 | 0.612
COc1ccc(O)c(C(=O)c2cc(C#N)c(=O)n(-c3ccc(Oc4ccccc4)cc3)c2)c1 | 0.737
Cc1cc(OCC2CCN(c3ncc(C(=O)Nc4ccccc4)cc3Cl)CC2)ccc1F | 0.899
CCOc1ccc(-c2nonc2NC(=O)CC(C)C)cc1OCC | 0.977
CC(C)(C)c1cc(NC2CC2)nc(-c2ccccn2)n1 | 0.719
O=C(Nc1cccc(F)c1)N(Cc1ccc(-c2ccc(CN3CCNCC3)cc2)cc1)C1CCN(Cc2ccccc2)CC1 | 0.769
CN1CCN(CC2(Nc3nccc(NCCc4cn(C)c5ccccc45)n3)CCCCC2)CC1 | 1.81
O=C(Nc1ccc(Cl)c(C(F)(F)F)c1)Nc1ccc(Cl)c(C(F)(F)F)c1 | 0.768
Cc1noc(C)c1-c1cccc(CNCc2ccc(-c3cccc(-c4nc5cccc(C)c5[nH]4)c3)cc2)c1 | 0.215
CCCC(=O)c1cnc2cc(O)ccc2c1Nc1ccccc1C | 0.651
O=C(/C=C/c1ccc(Cl)c(Cl)c1)NC1CCC(CN2CCC(Cc3cc4ccccc4[nH]3)CC2)CC1 (stereo not given) | 0.508
Cc1ccc(C)c2sc(N(CCCn3ccnc3)C(=O)c3ccco3)nc12 | 0.874
